{"source": "ChEMBL document CHEMBL4619786", "about": "“Discovery of Novel Resorcinol Dibenzyl Ethers Targeting the Programmed Cell Death-1/Programmed Cell Death-Ligand 1 Interaction as Potential Anticancer Agents” (J Med Chem, 2020)", "key": {"Mus musculus [1]": {"test_system": "Mus musculus", "assay": "Effect on spleen helper T cell population in mouse B16/F10 cells implanted […] mouse assessed as CD3-positive cell population at 100 mg/kg, ig administered once daily via gavage for 15 days measured 24 hrs post-last dose by immunostaining based flow cytometry (reference value: 14.7%)", "type": "organism-based", "details": "in vivo, po"}, "B16-F10 [2]": {"test_system": "B16-F10", "assay": "Cytotoxicity against mouse B16/F10 cells assessed as reduction in cell viability measured after 48 hrs by MTT assay", "type": "functional, cell-based", "details": "B16-F10, 48 h"}, "Mus musculus [3]": {"test_system": "Mus musculus", "assay": "Immunostimulatory activity in mouse B16/F10 cells implanted BALB/c mouse assessed as increase in activation of tumor-microenvironment mediated helper T cells in tumor by measuring melanoma cell population at 100 mg/kg, ig administered once daily via gavage for 15 days measured 24 hrs post-last dose by immunostaining based flow cytometry (reference value: 70%)", "type": "functional"}, "[4]": {"assay": "Toxicity in mouse B16/F10 cells implanted […] mouse assessed as histological changes in liver at 25 to 100 mg/kg, ig administered once daily via gavage for 15 days measured 24 hrs post-last dose by H and E staining based microscopic analysis", "type": "organism-based", "details": "in vivo, po"}, "Mus musculus [5]": {"test_system": "Mus musculus", "assay": "Immunostimulatory activity in mouse B16/F10 cells implanted […] mouse assessed as activation of tumor microenvironment by measuring increase in tumor infiltrating lymphocytes at 25 to 100 mg/kg, ig administered once daily via gavage for 15 days measured 24 hrs post last dose by H and E staining-based microscopic method", "type": "functional, organism-based"}, "Mus musculus [6]": {"test_system": "Mus musculus", "assay": "Effect on activated cytotoxic T cell population in mouse B16/F10 cells implanted […] mouse assessed as spleen cell population at 100 mg/kg, ig administered once daily via gavage for 15 days measured 24 hrs post-last dose by immunostaining based flow cytometry (reference value: 57.9 %)", "type": "organism-based", "details": "in vivo, po"}, "[7]": {"assay": "Toxicity in mouse B16/F10 cells implanted […] mouse assessed as effect on physical activity at 25 to 100 mg/kg, ig administered once daily via gavage for 15 days measured during compound dosing", "type": "organism-based", "details": "in vivo, po, 360 h"}, "Mus musculus [8]": {"test_system": "Mus musculus", "assay": "Immunostimulatory activity in mouse B16/F10 cells implanted BALB/c mouse assessed as increase in activation of tumor-microenvironment mediated helper T cells in tumor by measuring CD3-positive cell population at 100 mg/kg, ig administered once daily via gavage for 15 days measured 24 hrs post-last dose by immunostaining based flow cytometry (reference value: 18.9%)", "type": "functional"}, "[9]": {"assay": "Tmax in Sprague-Dawley rat at 1 mg/kg, iv by LC-MS/MS analysis", "type": "ADME, organism-based", "details": "in vivo"}, "B16-F10 [10]": {"test_system": "B16-F10", "assay": "Antitumor activity against mouse B16/F10 cells implanted in BALB/c mouse assessed as tumor weight at 100 mg/kg, ig administered once daily via gavage for 15 days measured 24 hrs post-last dose (reference value: 0.84 +/- 0.32 g)", "type": "functional"}, "Mus musculus [11]": {"test_system": "Mus musculus", "assay": "Effect on spleen helper T cell population in mouse B16/F10 cells implanted […] mouse assessed as CD4-positive cell population at 50 mg/kg, ig administered once daily via gavage for 15 days measured 24 hrs post-last dose by immunostaining based flow cytometry (reference value: 1.47 %)", "type": "ADME, organism-based", "details": "in vivo, po"}, "Mus musculus [12]": {"test_system": "Mus musculus", "assay": "Effect on spleen helper T cell population in mouse B16/F10 cells implanted […] mouse assessed as spleen cell population at 25 mg/kg, ig administered once daily via gavage for 15 days measured 24 hrs post-last dose by immunostaining based flow cytometry (reference value: 56.1 %)", "type": "ADME, organism-based", "details": "in vivo, po"}, "Mus musculus [13]": {"test_system": "Mus musculus", "assay": "Effect on activated cytotoxic T cell population in mouse B16/F10 cells implanted […] mouse assessed as CD3-positive cell population in spleen at 100 mg/kg, ig administered once daily via gavage for 15 days measured 24 hrs post-last dose by immunostaining based flow cytometry (reference value: 27.5 %)", "type": "organism-based", "details": "in vivo, po"}, "Mus musculus [14]": {"test_system": "Mus musculus", "assay": "Effect on activated cytotoxic T cell population in mouse B16/F10 cells implanted […] mouse assessed as CD3-positive/CD8-positive cell population in spleen at 50 mg/kg, ig administered once daily via gavage for 15 days measured 24 hrs post-last dose by immunostaining based flow cytometry (reference value: 14.2 %)", "type": "organism-based", "details": "in vivo, po"}, "Mus musculus [15]": {"test_system": "Mus musculus", "assay": "Effect on activated cytotoxic T cell population in mouse B16/F10 cells implanted […] mouse assessed as CD3-positive cell population in spleen at 25 mg/kg, ig administered once daily via gavage for 15 days measured 24 hrs post-last dose by immunostaining based flow cytometry (reference value: 27.5 %)", "type": "organism-based", "details": "in vivo, po"}, "[16]": {"target": "Programmed cell death protein 1/Programmed cell death 1 ligand 1 (Mus musculus, UniProt Q9EP73)", "sequence (Q9EP73 whole entry, the tested form may be a part)": "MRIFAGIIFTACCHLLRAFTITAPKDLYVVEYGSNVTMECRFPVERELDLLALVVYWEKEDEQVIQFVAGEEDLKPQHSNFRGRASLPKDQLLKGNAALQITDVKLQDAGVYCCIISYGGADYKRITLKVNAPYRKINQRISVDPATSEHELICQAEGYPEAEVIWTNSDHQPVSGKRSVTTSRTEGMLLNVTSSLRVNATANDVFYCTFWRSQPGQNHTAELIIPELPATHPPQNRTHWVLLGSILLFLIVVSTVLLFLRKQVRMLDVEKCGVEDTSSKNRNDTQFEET", "sequence (Q02242 whole entry, further chain, the tested form may be a part)": "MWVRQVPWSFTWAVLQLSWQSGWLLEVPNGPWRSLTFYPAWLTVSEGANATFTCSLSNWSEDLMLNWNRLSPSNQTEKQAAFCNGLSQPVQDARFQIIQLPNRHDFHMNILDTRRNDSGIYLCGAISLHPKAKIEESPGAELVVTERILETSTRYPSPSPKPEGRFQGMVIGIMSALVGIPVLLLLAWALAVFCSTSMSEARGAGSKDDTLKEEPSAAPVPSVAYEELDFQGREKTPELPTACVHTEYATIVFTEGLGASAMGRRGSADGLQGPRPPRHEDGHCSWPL", "assay": "Inhibition of mouse biotin-labelled C-terminal Fc-fused/Avi-tagged PD1/Fc-fused PDL1 expressed in HEK293 cells protein-protein interaction measured after 2 hrs by ELISA", "type": "cell-based"}, "Mus musculus [17]": {"test_system": "Mus musculus", "assay": "Immunostimulatory activity in mouse B16/F10 cells implanted BALB/c mouse assessed as increase in activation of tumor-microenvironment mediated activated cytotoxic T cells in tumor by measuring CD3-positive/CD8-positive cell population at 25 mg/kg, ig administered once daily via gavage for 15 days measured 24 hrs post-last dose by immunostaining based flow cytometry (reference value: 4.18%)", "type": "functional"}, "[18]": {"assay": "Toxicity in mouse B16/F10 cells implanted […] mouse assessed as histological changes in kidney at 25 to 100 mg/kg, ig administered once daily via gavage for 15 days measured 24 hrs post-last dose by H and E staining based microscopic analysis", "type": "organism-based", "details": "in vivo, po"}, "Mus musculus [19]": {"test_system": "Mus musculus", "assay": "Effect on spleen helper T cell population in mouse B16/F10 cells implanted […] mouse assessed as spleen cell population at 50 mg/kg, ig administered once daily via gavage for 15 days measured 24 hrs post-last dose by immunostaining based flow cytometry (reference value: 56.1 %)", "type": "ADME, organism-based", "details": "in vivo, po"}, "[20]": {"assay": "Tmax in Sprague-Dawley rat at 10 mg/kg, po by LC-MS/MS analysis", "type": "ADME, organism-based", "details": "in vivo"}, "Mus musculus [21]": {"test_system": "Mus musculus", "assay": "Immunostimulatory activity in mouse B16/F10 cells implanted […] mouse assessed as increase in activation of tumor-microenvironment mediated activated cytotoxic T cells in tumor by measuring melanoma cell population at 100 mg/kg, ig administered once daily via gavage for 15 days measured 24 hrs post-last dose by immunostaining based flow cytometry (reference value: 72.8%)", "type": "functional"}, "[22]": {"assay": "Cmax in Sprague-Dawley rat at 1 mg/kg, iv by LC-MS/MS analysis", "type": "ADME, organism-based", "set-up": "dose 1 mg/kg, route intravenous", "details": "in vivo"}, "Mus musculus [23]": {"test_system": "Mus musculus", "assay": "Immunostimulatory activity in mouse B16/F10 cells implanted BALB/c mouse assessed as increase in activation of tumor-microenvironment mediated helper T cells in tumor by measuring melanoma cell population at 25 mg/kg, ig administered once daily via gavage for 15 days measured 24 hrs post-last dose by immunostaining based flow cytometry (reference value: 70%)", "type": "functional"}, "[24]": {"assay": "Selectivity ratio of IC50 for inhibition of mouse biotin-labelled C-terminal Fc-fused/Avi-tagged PD1/Fc-fused PDL1 expressed in HEK293 cells protein-protein interaction to IC50 for inhibition of human PD1/PDL1 protein-protein interaction", "type": "cell-based"}, "MCF7": {"test_system": "MCF7", "assay": "Cytotoxicity against human MCF7 cells assessed as reduction in cell viability measured after 48 hrs by MTT assay", "type": "functional, cell-based", "details": "MCF7, 48 h"}, "[25]": {"target": "Programmed cell death protein 1/Programmed cell death 1 ligand 1 (Homo sapiens, UniProt Q9NZQ7)", "sequence (Q15116 whole entry)": "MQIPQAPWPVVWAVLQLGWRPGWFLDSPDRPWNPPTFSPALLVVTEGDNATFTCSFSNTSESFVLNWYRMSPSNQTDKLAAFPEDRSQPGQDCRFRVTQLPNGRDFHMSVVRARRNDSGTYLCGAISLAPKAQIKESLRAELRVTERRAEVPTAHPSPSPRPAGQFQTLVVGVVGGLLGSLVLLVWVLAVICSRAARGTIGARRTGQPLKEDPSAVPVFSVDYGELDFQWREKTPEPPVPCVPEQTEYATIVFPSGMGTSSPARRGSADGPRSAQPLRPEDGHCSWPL", "sequence (Q9NZQ7 whole entry)": "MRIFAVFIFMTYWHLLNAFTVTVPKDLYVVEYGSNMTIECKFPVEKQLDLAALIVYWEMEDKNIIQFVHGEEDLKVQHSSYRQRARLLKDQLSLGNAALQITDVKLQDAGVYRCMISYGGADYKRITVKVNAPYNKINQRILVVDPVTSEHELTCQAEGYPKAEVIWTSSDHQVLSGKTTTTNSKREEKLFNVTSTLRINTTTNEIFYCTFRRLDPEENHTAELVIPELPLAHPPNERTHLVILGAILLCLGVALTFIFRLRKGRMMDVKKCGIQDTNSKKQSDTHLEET", "assay": "Inhibition of human PD1/PDL1 protein-protein interaction by HTRF assay", "type": "protein-complex assay"}}, "note": "Active and inactive are the calls of the source. No cut-off for these calls is given here."}
{"smiles": "Cc1c(COc2cc(OCc3cccc(C#N)c3)c(CNC(C)(C)C(=O)O)cc2Cl)cccc1-c1ccccc1", "values": [{"measurement": "Activity", "setting": "Mus musculus [1]", "result": 12.8, "unit": "%"}, {"measurement": "IC50", "setting": "B16-F10 [2]", "result": "> 10", "unit": "µM"}, {"measurement": "Activity", "setting": "Mus musculus [3]", "result": 57, "unit": "%"}, {"measurement": "Activity", "setting": "[4]", "result": "Non-Toxic"}, {"measurement": "Activity", "setting": "Mus musculus [5]", "result": "Active"}, {"measurement": "Activity", "setting": "Mus musculus [6]", "result": 62.6, "unit": "%"}, {"measurement": "Activity", "setting": "[7]", "result": "Non-Toxic"}, {"measurement": "Activity", "setting": "Mus musculus [8]", "result": 28, "unit": "%"}, {"measurement": "Tmax", "setting": "[9]", "result": 4.98, "unit": "min"}, {"measurement": "Activity", "setting": "B16-F10 [10]", "result": 0.16, "unit": "g"}, {"measurement": "Activity", "setting": "Mus musculus [11]", "result": 1.18, "unit": "%"}, {"measurement": "Activity", "setting": "Mus musculus [12]", "result": 59.9, "unit": "%"}, {"measurement": "Activity", "setting": "Mus musculus [13]", "result": 25.4, "unit": "%"}, {"measurement": "Activity", "setting": "Mus musculus [14]", "result": 15.5, "unit": "%"}, {"measurement": "Activity", "setting": "Mus musculus [15]", "result": 24.3, "unit": "%"}, {"measurement": "IC50", "setting": "[16]", "result": "> 1", "unit": "µM"}, {"measurement": "Activity", "setting": "Mus musculus [17]", "result": 12.4, "unit": "%"}, {"measurement": "Activity", "setting": "[18]", "result": "Non-Toxic"}, {"measurement": "Activity", "setting": "Mus musculus [19]", "result": 53.9, "unit": "%"}, {"measurement": "Tmax", "setting": "[20]", "result": 36, "unit": "min"}, {"measurement": "Activity", "setting": "Mus musculus [21]", "result": 44.8, "unit": "%"}, {"measurement": "Cmax", "setting": "[22]", "result": 1750, "unit": "ng/mL"}, {"measurement": "Activity", "setting": "Mus musculus [23]", "result": 65.2, "unit": "%"}, {"measurement": "Ratio IC50", "setting": "[24]", "result": "> 80"}, {"measurement": "IC50", "setting": "MCF7", "result": "> 10", "unit": "µM"}, {"measurement": "IC50", "setting": "[25]", "result": 0.0125, "unit": "µM"}]}
